Results reported in patent publication US20230079819A1, “COMPOUNDS AND USES THEREOF” (Foghorn Therapeutics Inc., priority 2019, published 2023).
Several values for one entry are separate records, joined by “and”; a condition that tells them apart may be missing. Identical values can stand only once.

Columns and labels:
BRG-1 = molecular target: T1, BRG-1 (Homo sapiens, UniProt P51532); experiment: ATPase catalytic activity of BRG-1, ADP-Glo in vitro biochemical assay; conditions: ATPase catalytic activity, 30 nM BRG-1, 400 μM ATP, read-out: BRG1 IP50 (μM)*
T1 construct: made in house; host or cells: High Five insect cells

BRM = molecular target: T2, BRM (Homo sapiens, UniProt P51531); experiment: ATPase catalytic activity of BRM, ADP-Glo in vitro biochemical assay; conditions: ATPase catalytic activity, 30 nM BRM, 400 μM ATP, read-out: BRM IP50 (μM)*
T2 construct: made in house; host or cells: High Five insect cells
T2 sequence (P51531 whole entry): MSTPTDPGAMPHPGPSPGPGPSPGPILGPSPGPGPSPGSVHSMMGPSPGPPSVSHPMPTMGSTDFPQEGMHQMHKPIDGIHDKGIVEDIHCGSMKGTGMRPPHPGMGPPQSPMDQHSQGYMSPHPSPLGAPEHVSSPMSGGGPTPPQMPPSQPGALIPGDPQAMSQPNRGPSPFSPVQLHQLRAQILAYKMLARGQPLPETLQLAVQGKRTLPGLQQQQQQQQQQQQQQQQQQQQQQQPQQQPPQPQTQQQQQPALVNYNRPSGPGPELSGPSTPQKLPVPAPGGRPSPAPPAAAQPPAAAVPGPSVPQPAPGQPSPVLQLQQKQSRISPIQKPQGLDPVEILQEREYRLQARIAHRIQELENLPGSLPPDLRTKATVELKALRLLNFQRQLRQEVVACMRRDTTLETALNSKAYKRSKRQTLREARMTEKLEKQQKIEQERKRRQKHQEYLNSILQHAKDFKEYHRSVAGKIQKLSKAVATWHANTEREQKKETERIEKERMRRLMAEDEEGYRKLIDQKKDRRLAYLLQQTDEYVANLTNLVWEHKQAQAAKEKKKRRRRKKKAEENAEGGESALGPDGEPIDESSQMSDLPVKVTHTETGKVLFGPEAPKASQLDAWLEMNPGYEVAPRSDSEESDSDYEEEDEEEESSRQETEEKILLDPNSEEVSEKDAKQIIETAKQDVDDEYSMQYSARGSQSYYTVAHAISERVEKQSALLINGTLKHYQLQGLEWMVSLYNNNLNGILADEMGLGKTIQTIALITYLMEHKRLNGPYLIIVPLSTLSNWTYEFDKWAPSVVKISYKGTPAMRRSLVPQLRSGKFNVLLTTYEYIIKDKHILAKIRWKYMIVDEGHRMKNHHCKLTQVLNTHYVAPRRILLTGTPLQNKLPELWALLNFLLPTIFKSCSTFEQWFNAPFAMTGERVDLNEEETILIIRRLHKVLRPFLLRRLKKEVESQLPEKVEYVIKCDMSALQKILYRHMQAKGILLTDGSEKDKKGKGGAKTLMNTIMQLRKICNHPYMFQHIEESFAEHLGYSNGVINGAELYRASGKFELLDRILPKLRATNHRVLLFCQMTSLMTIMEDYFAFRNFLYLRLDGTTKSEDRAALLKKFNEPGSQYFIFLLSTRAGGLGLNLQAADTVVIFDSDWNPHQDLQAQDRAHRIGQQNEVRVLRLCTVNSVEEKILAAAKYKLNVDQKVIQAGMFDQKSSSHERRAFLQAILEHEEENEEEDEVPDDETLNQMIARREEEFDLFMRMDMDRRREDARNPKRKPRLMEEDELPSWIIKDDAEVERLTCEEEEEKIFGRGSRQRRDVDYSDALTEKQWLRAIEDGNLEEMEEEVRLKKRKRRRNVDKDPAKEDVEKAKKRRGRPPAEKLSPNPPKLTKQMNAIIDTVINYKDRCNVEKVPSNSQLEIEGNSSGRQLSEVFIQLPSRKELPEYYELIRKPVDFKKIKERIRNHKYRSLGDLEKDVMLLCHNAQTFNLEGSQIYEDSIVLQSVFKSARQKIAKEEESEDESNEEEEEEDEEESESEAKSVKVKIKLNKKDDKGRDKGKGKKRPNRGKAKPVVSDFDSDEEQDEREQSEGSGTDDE

T1 sequence (P51532 whole entry): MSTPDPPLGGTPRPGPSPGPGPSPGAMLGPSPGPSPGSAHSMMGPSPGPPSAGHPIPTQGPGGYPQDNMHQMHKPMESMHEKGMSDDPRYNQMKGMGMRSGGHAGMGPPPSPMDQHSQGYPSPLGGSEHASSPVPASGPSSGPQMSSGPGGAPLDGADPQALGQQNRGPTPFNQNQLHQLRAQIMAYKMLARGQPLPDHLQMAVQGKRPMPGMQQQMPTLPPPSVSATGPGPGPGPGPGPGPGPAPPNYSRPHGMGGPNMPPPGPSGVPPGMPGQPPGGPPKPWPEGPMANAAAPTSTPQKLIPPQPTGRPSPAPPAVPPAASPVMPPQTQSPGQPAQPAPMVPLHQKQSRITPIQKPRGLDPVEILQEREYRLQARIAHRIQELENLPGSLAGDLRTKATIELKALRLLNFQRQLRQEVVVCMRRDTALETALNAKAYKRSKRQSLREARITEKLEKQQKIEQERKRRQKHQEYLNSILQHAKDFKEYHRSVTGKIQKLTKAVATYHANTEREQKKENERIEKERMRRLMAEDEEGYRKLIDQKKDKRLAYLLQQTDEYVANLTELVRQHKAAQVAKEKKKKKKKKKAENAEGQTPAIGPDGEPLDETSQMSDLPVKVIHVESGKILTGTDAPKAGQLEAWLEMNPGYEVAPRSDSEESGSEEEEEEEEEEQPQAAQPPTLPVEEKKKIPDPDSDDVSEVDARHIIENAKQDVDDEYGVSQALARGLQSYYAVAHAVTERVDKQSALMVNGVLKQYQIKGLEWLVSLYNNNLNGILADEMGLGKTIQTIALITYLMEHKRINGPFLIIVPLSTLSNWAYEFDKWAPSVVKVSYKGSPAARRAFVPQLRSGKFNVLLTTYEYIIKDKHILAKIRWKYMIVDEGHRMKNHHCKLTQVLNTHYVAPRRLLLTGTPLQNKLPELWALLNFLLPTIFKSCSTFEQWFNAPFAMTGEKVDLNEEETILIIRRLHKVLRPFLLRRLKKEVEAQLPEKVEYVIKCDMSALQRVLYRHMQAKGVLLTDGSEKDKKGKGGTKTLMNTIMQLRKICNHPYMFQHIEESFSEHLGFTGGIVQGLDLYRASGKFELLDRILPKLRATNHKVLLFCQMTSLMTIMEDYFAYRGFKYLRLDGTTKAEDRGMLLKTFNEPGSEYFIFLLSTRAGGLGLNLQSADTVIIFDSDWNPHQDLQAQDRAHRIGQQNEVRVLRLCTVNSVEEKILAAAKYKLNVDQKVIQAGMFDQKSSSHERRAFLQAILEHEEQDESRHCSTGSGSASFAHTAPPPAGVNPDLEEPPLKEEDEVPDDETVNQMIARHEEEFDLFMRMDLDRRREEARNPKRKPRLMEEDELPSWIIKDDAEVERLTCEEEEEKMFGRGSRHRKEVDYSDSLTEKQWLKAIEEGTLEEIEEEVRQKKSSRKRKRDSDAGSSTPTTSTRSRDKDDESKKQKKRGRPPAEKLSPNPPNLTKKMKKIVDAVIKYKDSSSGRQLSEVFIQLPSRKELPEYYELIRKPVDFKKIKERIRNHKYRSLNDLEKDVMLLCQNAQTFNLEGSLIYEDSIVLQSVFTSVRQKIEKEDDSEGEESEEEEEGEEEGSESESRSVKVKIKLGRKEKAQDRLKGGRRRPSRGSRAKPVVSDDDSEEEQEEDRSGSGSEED

Row | SMILES | IC50 (BRG-1) [µM] | IC50 (BRM)
1 | CC(C)S(=O)(=O)n1ccc(C(=O)NCC(=O)Nc2nc(-c3cccc(-c4ccncc4)c3)cs2)c1 [Compound 43, 1-isopropylsulfonyl-N-[2-oxo-2-[[4-[3-(4-pyridyl)phenyl]thiazol-2-yl]amino]ethyl]pyrrole-3-carboxamide] | > 0.01 | > 0.01 µM
2 | CS(=O)(=O)n1cnc(C(=O)NCC(=O)Nc2nc(-c3cccc(-c4ccncc4)c3)cs2)c1 [Compound 46, 1-(methylsulfonyl)-N-(2-oxo-2-((4-(3-(pyridin-4-yl)phenyl)thiazol-2-yl)amino)ethyl)-1H-imidazole-4-carboxamide] | < 0.01 | < 0.01 µM
3 | CN(C)S(=O)(=O)n1ccc(C(=O)NCC(=O)Nc2nc(-c3cccc(-c4ccncc4)c3)cs2)c1 [Compound 47, 1-(N,N-dimethylsulfamoyl)-N-(2-oxo-2-((4-(3-(pyridin-4-yl)phenyl)thiazol-2-yl)amino)ethyl)-1H-pyrrole-3-carboxamide] | > 0.01 | > 0.01 µM
4 | CS(=O)(=O)n1ccc(C(=O)NCC(=O)Nc2nc(-c3cccc(-c4cccc(CN)c4)c3)cs2)c1 [Compound 53, N-(2-((4-(3′-(aminomethyl)-[1,1′-biphenyl]-3-yl)thiazol-2-yl)amino)-2-oxoethyl)-1-(methylsulfonyl)-1H-pyrrole-3-carboxamide] | < 0.01 | < 0.01 µM
5 | Cc1cc(C)cc(-c2cccc(-c3csc(NC(=O)CNC(=O)c4ccn(S(C)(=O)=O)c4)n3)c2)c1 [Compound 55, N-(2-((4-(3′,5′-dimethyl-[1,1′-biphenyl]-3-yl)thiazol-2-yl)amino)-2-oxoethyl)-1-(methylsulfonyl)-1H-pyrrole-3-carboxamide] | < 0.01 | < 0.01 µM
6 | Cc1cc(-c2cccc(-c3csc(NC(=O)CNC(=O)c4ccn(C(C)(C)C)c4)n3)c2)on1 [Compound 56, 1-(tert-butyl)-N-(2-((4-(3-(3-methylisoxazol-5-yl)phenyl)thiazol-2-yl)amino)-2-oxoethyl)-1H-pyrrole-3-carboxamide] | > 0.01 | > 0.01 µM
7 | Cn1ccc(-c2cccc(-c3csc(NC(=O)CNC(=O)c4ccn(C(C)(C)C)c4)n3)c2)n1 [Compound 58, 1-(tert-butyl)-N-(2-((4-(3-(1-methyl-1H-pyrazol-3-yl)phenyl)thiazol-2-yl)amino)-2-oxoethyl)-1H-pyrrole-3-carboxamide] | > 0.01 | > 0.01 µM
8 | COC[C@H](NC(=O)c1ccn(S(C)(=O)=O)c1)C(=O)Nc1nc(-c2cccc(-c3ccnc(C)c3)c2)cs1 [Compound 60, (S)—N-(3-methoxy-1-((4-(3-(2-methylpyridin-4-yl)phenyl)thiazol-2-yl)amino)-1-oxopropan-2-yl)-1-(methylsulfonyl)-1H-pyrrole-3-carboxamide] | < 0.01 | < 0.01 µM
9 | COC[C@H](NC(=O)c1ccn(C(C)(C)C)c1)C(=O)Nc1nc(-c2cccc(-c3ccn(C)n3)c2)cs1 [Compound 62, (S)-1-(tert-butyl)-N-(3-methoxy-1-((4-(3-(1-methyl-1H-pyrazol-3-yl)phenyl)thiazol-2-yl)amino)-1-oxopropan-2-yl)-1H-pyrrole-3-carboxamide] | > 0.01 | > 0.01 µM
10 | COC[C@H](NC(=O)c1ccn(C(C)(C)C)c1)C(=O)Nc1nc(-c2ccc3ccn(C)c(=O)c3c2)cs1 [Compound 63, (S)-1-(tert-butyl)-N-(3-methoxy-1-((4-(2-methyl-1-oxo-1,2-dihydroisoquinolin-7-yl)thiazol-2-yl)amino)-1-oxopropan-2-yl)-1H-pyrrole-3-carboxamide] | > 0.01 | > 0.01 µM
11 | COC[C@H](NC(=O)c1ccn(C(C)(C)C)c1)C(=O)Nc1nc(-c2ccc3c(c2)C(=O)N(C)CC3)cs1 [Compound 64, (S)-1-(tert-butyl)-N-(3-methoxy-1-((4-(2-methyl-1-oxo-1,2,3,4-tetrahydroisoquinolin-7-yl)thiazol-2-yl)amino)-1-oxopropan-2-yl)-1H-pyrrole-3-carboxamide] | > 0.01 | > 0.01 µM
12 | COC[C@H](NC(=O)c1ccn(S(C)(=O)=O)c1)C(=O)Nc1nc(-c2cccc(-c3ccncn3)c2)cs1 [Compound 65, (S)—N-(3-methoxy-1-oxo-1-((4-(3-(pyrimidin-4-yl)phenyl)thiazol-2-yl)amino)propan-2-yl)-1-(methylsulfonyl)-1H-pyrrole-3-carboxamide] | < 0.01 | < 0.01 µM
13 | COC[C@H](NC(=O)c1ccn(C(C)(C)C)c1)C(=O)Nc1nc(-c2cccc(-c3ccncn3)c2)cs1 [Compound 66, (S)-1-(tert-butyl)-N-(3-methoxy-1-oxo-1-((4-(3-(pyrimidin-4-yl)phenyl)thiazol-2-yl)amino)propan-2-yl)-1H-pyrrole-3-carboxamide] | > 0.01 | > 0.01 µM
14 | C[C@H](NC(=O)c1ccn(S(C)(=O)=O)c1)C(=O)Nc1nc(-c2cccc(-c3ccncc3)c2)cs1 [Compound 68, N-[(1S)-1-methyl-2-oxo-2-[[4-[3-(4-pyridyl)phenyl]thiazol-2-yl]amino]ethyl]-1-methylsulfonyl-pyrrole-3-carboxamide] | < 0.01 | < 0.01 µM
15 | CS(=O)(=O)n1ccc(C(=O)N[C@@H](CCO)C(=O)Nc2nc(-c3cccc(-c4ccncc4)c3)cs2)c1 [Compound 71, (S)—N-(4-hydroxy-1-oxo-1-((4-(3-(pyridin-4-yl)phenyl)thiazol-2-yl)amino)butan-2-yl)-1-(methylsulfonyl)-1H-pyrrole-3-carboxamide] | < 0.01 | < 0.01 µM and > 0.01 µM
16 | CC(C)[C@H](NC(=O)c1ccn(S(C)(=O)=O)c1)C(=O)Nc1nc(-c2cccc(-c3ccncc3)c2)cs1 [Compound 73, (S)—N-(3-methyl-1-oxo-1-((4-(3-(pyridin-4-yl)phenyl)thiazol-2-yl)amino)butan-2-yl)-1-(methylsulfonyl)-1H-pyrrole-3-carboxamide] | > 0.01 | > 0.01 µM
17 | CC(C)C[C@H](NC(=O)c1ccn(S(C)(=O)=O)c1)C(=O)Nc1nc(-c2cccc(-c3ccncc3)c2)cs1 [Compound 75, (S)—N-(4-methyl-1-oxo-1-((4-(3-(pyridin-4-yl)phenyl)thiazol-2-yl)amino)pentan-2-yl)-1-(methylsulfonyl)-1H-pyrrole-3-carboxamide] | > 0.01 | > 0.01 µM

The next lines start with the values.

Row | IC50 (BRG-1) [µM] | IC50 (BRM) | SMILES
18 | > 0.1 | > 0.01 µM | CS(=O)(=O)n1cc(C(=O)NCC(=O)Nc2nc(-c3cccc(-c4ccncc4)c3)cs2)cn1 [Compound 44, 1-(methylsulfonyl)-N-(2-oxo-2-((4-(3-(pyridin-4-yl)phenyl)thiazol-2-yl)amino)ethyl)-1H-pyrazole-4-carboxamide]
19 | < 0.01 | < 0.01 µM | CS(=O)(=O)n1ccc(C(=O)NCC(=O)Nc2nc(-c3cccc(-c4ccncc4)c3)cs2)n1 [Compound 45, 1-(methylsulfonyl)-N-(2-oxo-2-((4-(3-(pyridin-4-yl)phenyl)thiazol-2-yl)amino)ethyl)-1H-pyrazole-3-carboxamide]
20 | > 0.1 | > 0.1 µM | CC(=O)n1ccc(C(=O)NCC(=O)Nc2nc(-c3cccc(-c4ccncc4)c3)cs2)c1 [Compound 50, 1-acetyl-N-(2-oxo-2-((4-(3-(pyridin-4-yl)phenyl)thiazol-2-yl)amino)ethyl)-1H-pyrrole-3-carboxamide]
21 | < 0.01 | < 0.01 µM | CS(=O)(=O)n1ccc(C(=O)NCC(=O)Nc2nc(-c3cccc(-c4ccnc(N5CCNCC5)c4)c3)cs2)c1 [Compound 54, 1-(methylsulfonyl)-N-(2-oxo-2-((4-(3-(2-(piperazin-1-yl)pyridin-4-yl)phenyl)thiazol-2-yl)amino)ethyl)-1H-pyrrole-3-carboxamide]
22 | < 0.01 | < 0.01 µM | CC(=O)N(C)c1cc(-c2cccc(-c3csc(NC(=O)CNC(=O)c4ccn(S(C)(=O)=O)c4)n3)c2)ccn1 [Compound 57, N-(2-((4-(3-(2-(N-methylacetamido)pyridin-4-yl)phenyl)thiazol-2-yl)amino)-2-oxoethyl)-1-(methylsulfonyl)-1H-pyrrole-3-carboxamide]
23 | < 0.01 | < 0.01 µM | CSCC[C@H](NC(=O)c1ccn(S(C)(=O)=O)c1)C(=O)Nc1nc(-c2cccc(-c3ccnc(C)c3)c2)cs1 [Compound 59, (S)—N-(1-((4-(3-(2-methylpyridin-4-yl)phenyl)thiazol-2-yl)amino)-4-(methylthio)-1-oxobutan-2-yl)-1-(methylsulfonyl)-1H-pyrrole-3-carboxamide]
24 | < 0.01 | < 0.01 µM | COC[C@H](NC(=O)c1ccn(S(C)(=O)=O)c1)C(=O)Nc1nc(-c2cccc(-c3cc(C)nc(C)c3)c2)cs1 [Compound 61, (S)—N-(1-((4-(3-(2,6-dimethylpyridin-4-yl)phenyl)thiazol-2-yl)amino)-3-methoxy-1-oxopropan-2-yl)-1-(methylsulfonyl)-1H-pyrrole-3-carboxamide]
25 | < 0.01 | < 0.01 µM | CS(=O)(=O)n1ccc(C(=O)N[C@@H](CO)C(=O)Nc2nc(-c3cccc(-c4ccncc4)c3)cs2)c1 [Compound 69, (S)—N-(3-hydroxy-1-oxo-1-((4-(3-(pyridin-4-yl)phenyl)thiazol-2-yl)amino)propan-2-yl)-1-(methylsulfonyl)-1H-pyrrole-3-carboxamide]
26 | < 0.01 | < 0.01 µM | COCC[C@H](NC(=O)c1ccn(S(C)(=O)=O)c1)C(=O)Nc1nc(-c2cccc(-c3ccncc3)c2)cs1 [Compound 72, (S)—N-(4-methoxy-1-oxo-1-((4-(3-(pyridin-4-yl)phenyl)thiazol-2-yl)amino)butan-2-yl)-1-(methylsulfonyl)-1H-pyrrole-3-carboxamide]
27 | > 1 | > 1 µM | CC(C)(C)[C@H](NC(=O)c1ccn(S(C)(=O)=O)c1)C(=O)Nc1nc(-c2cccc(-c3ccncc3)c2)cs1 [Compound 74, (S)—N-(3,3-dimethyl-1-oxo-1-((4-(3-(pyridin-4-yl)phenyl)thiazol-2-yl)amino)butan-2-yl)-1-(methylsulfonyl)-1H-pyrrole-3-carboxamide]
